Literature values, collected in US20060252738A1, “Method for preparing and using water-based steroid pheromone compositions” (Phero Tech Inc., priority 2005, published 2006).

Assays:
sows = conditions: pigs; Reed et al. (1974)
[1] = test system: sows that have reached oestrus; conditions: for function in place of boar saliva: pressurized aerosol sprays in organic solvents, sows that have reached oestrus, Melrose et al. 1971

Row | SMILES | bioactivity as diagnostic tool relative to androstenone (sows) | function in place of boar saliva [1] | effective dose ([1]; established by Melrose et al. (1972))
1 | C[C@]12CC[C@H](O)C[C@@H]1CC[C@@H]1[C@@H]2CC[C@]2(C)C=CC[C@@H]12 [3β-hydroxy-5α-androst-16-ene] | less effective | – | –
2 | C[C@@]12CCC[C@H]1[C@@H]1CC[C@H]3CC(=O)CC[C@]3(C)[C@H]1CC2 [5α-androstan-3-one] | less effective | – | –
3 | C[C@]12CCC(=O)C[C@H]1CC[C@@H]1[C@@H]2CC[C@]2(C)C=CC[C@@H]12 [5β-androst-16-en-3-one] | comparable | – | –
4 | C[C@]12CC[C@@H](O)C[C@@H]1CC[C@@H]1[C@@H]2CC[C@]2(C)C=CC[C@@H]12 [androstenol, 3α-hydroxy-5a-androst-16-ene] | – | inducing an immobile mating stance | –
5 | C[C@]12CCC(=O)C[C@@H]1CC[C@@H]1[C@@H]2CC[C@]2(C)C=CC[C@@H]12 [androstenone, 5α-androst-16-en-3-one] | – | inducing an immobile mating stance | 2 to 20 µg
6 | C[C@@]12C=CC[C@H]1[C@@H]1CCC3=CC(=O)CC[C@]3(C)[C@H]1CC2 [andrsost-4,16-dien-3-one] | comparable | – | –
